Common to all, as to type: physicochemical
Series [1] in a line: Ross-Miles foam height. Further details: key: X: low water solubility. foam height cannot be measured. As to conditions: Examples 82-83. On the procedure:
Since most of the foaming data on surfactants is typically obtained by the Ross-Miles Foam Height Assay (Ross, J. and Miles, G. D. Am Soc. for Testing Material Method D1173-63 Philadelphia, Pa. (1953); Oil & Soap (1958) 62:1260) the foaming ability of these surfactants were acquired using this method.
In the Ross-Miles method, 200 mL of a surfactant solution contained in a pipette of specified dimensions with a 2.9-mm-i.d. orifice is allowed to fall 90 cm onto 50 mL of the same solution contained in a cylindrical vessel maintained at a given temperature by means of a water jacket. The height of the foam produced in the cylindrical vessel is read immediately after all the solution has run out of the pipette and then again after a given amount of time.
Using this method, the foam production (initial foam height in mm) and foam stability (final foam height after 10 minutes in mm) were measured at 0.1% aldonamide concentration, 40° C. and 0 ppm (parts per million) hardness. Aldonamides that were not soluble at 40° C. were measured at about 5°-10° C. above their Krafft points.

Series [2] in a line: Critical micelle concentration (Wilhelmy plate method). The conditions noted are these: 60° C. On the procedure: The critical micelle concentration (CMC) is defined as the concentration at which a surfactant forms micelles in aqueous solution. Micellization is the preferred interfacial phenomena, since certain surfactant benefits such as detergency (the solubilization of soils), foaming, wetting or emulsification depend on the formation of these aggregates in solution.
The CMC value of C8 /C10 oxypropyl D-gluconamide was determined by plotting surface tension as a function of log(concentration) and extrapolating linear points to obtain an intersection point. The concentration at this point was taken as the CMC. The technique used was the Wilhelmy plate method and the instrument used was a Lauda Auto-Tensiometer. While wishing not to be bound to theory, it is believed that surfactants with low CMC values form micelles more readily at lower concentrations than those with high CMC values.
The critical micelle concentration (CMC) value of C8 /C10 oxypropyl D-gluconamide (molecular weight=375.02 g/mole, 65.9% C8, 34.1% C10) was determined and is set forth below: […]

A short description of series [3]: Water solubility. The conditions noted are these: in words.
Series [4] is described as follows: Krafft point of aqueous dispersion of aldonamide. The conditions noted are these: 0.1% in water by weight. On the procedure: The temperature at and above which surfactants begin to form micelles instead of precipitates is referred to as the Krafft point (Tk) and at this temperature the solubility of a surfactant becomes equal to its CMC (numerical value at which micelles are formed).
The Krafft point was measured by preparing 650 ml of a 0.1% or 1.0% dispersion of aldonamide in water by weight. If the surfactant was soluble at room temperature, the solution was slowly cooled to 0° C. […] (less than zero). If it precipitated out of solution, the temperature at which precipitation occurs was taken as the Krafft point.
If the surfactant was insoluble at :room temperature, the dispersion was slowly heated until the solution became homogeneous. It was then slowly cooled until precipitation occurred. The temperature at which the surfactant precipitates out of solution upon cooling was taken as the Krafft point.

Series [5] in a line: Area per molecule at the interface. As to conditions: 60° C. The source says: The area per molecule of a surfactant at the water/air interface provides information on the degree of packing and the orientation of the adsorbed surfactant molecule. While not wishing to be bound by theory, it is believed that surfactants that have small area per molecule values tend to pack more closely at the interface than those with large area per molecule values. From the surface excess concentration at surface saturation (Γmax), the area per molecule (am) of C8 /C10 oxypropyl D-gluconamide was determined and is given by:
am =1×10^16 /Nav Γmax
Γmax =-1/2·303RT(∂γ/∂log[Conc])T
NAV =6.0221×10^23 per gram mole (Avogadro's Number)
The area per molecule (am) of several surfactants were-determined and are set forth below: […]

Series [6] in a line: Effectiveness in reducing surface tension (surface pressure at the CMC). The conditions noted are these: 60° C. The source says: Effectiveness of a surfactant in reducing surface tension is defined as the maximum reduction in surface tension that can be obtained regardless of the bulk phase surfactant concentration.
As mentioned before, surface tension reduction depends on the replacement of water molecules at the interface by surfactant molecules, therefore the effectiveness of a surfactant in reducing interfacial surface tension should reflect the saturated concentration of surfactant at the interface relative to that in bulk liquid phase. During this process the surface tension of water steadily decreases as bulk phase surfactant concentration increases. This will continue until the concentration reaches the critical micelle concentration (CMC), above which the surface tension remains nearly unchanged and the interface is saturated with surfactant. The surface tension at the CMC is therefore very close to the minimum interfacial tension or maximum surface pressure that the system can achieve. The surface pressure at this point, cmc, is a suitable measure of the effectiveness of a surfactant in reducing surface tension and is given as:
cmc =20+2.3 nRT(Γmax) log[CMC/C20 ]
n=1 which represents the number of ions whose surface concentration changes with the change in liquid phase surfactant concentration.
R=8.314×107 ergs/mol K (Gas Constant)
Γmax =-1/2·303RT(∂γ/∂log [Conc])T=3.85×10^-10 mole/cm^2
CMC/C20 =is the ratio of the critical micelle concentration to the bulk phase surfactant concentration necessary to reduce the surface tension of water by 20 dyn/cm.
The effectiveness of various surfactants in reducing surface tension ( cmc) were determined and are set forth below: […]

A short description of series [7]: Effectiveness of adsorption at the interface (surface excess concentration at surface saturation). The conditions noted are these: for surface excess concentration at surface saturation (Γmax): 60° C. (T=333.15K). The source says: The surface excess concentration at surface saturation (Γmax) is defined as a measure of the effectiveness of surfactant adsorption at the water/air interface and represents the maximum value to which adsorption can be obtained. Effectiveness of adsorption is related to the interfacial area occupied by the surfactant molecule. The smaller the effective cross-sectional area of a surfactant at the interface, the greater its effectiveness of adsorption. The effectiveness of adsorption is an important factor in determining surfactant properties such as detergency, foaming, wetting or emulsification. While not wishing to be bound by theory, it is believed that surfactants that absorb effectively at the interface tend have tightly packed coherent interfacial films and often provide better surfactant benefits than those with loosely packed noncoherent films. The effectiveness of adsorption of C8 /C10 oxypropyl D-gluconarnide was determined using the Gibbs equation given as:
Γmax =-1/2.303RT(∂γ/∂log[Conc])T
(∂γ/∂log[Conc)T =-24.574971 ergs/cm^2 (which is equivalent to the
slope of a plot of γ versus log[Conc]) R=8.3 14×10^7 ergs/mol K (Gas Constant)
The surface excess concentration at surface saturation (Γmax) of various surfactants were determined and are set forth below: […]

The nature of series [8]: Surface tension at the water/air interface. The conditions noted are these: 60° C. On the procedure: An important characteristic feature that surfactants have is the tendency for them to absorb at the water/air interface in an oriented manner, thereby altering the interfacial free energy of that surface. The surface free energy per unit area or surface tension (γ), is a measure of this work and may be considered as the minimum amount of work required to bring sufficient surfactant molecules to the surface.
The surface tension (γ) value of C8 /C10 oxypropyl D-gluconamide was determined and is set forth below: […]

Series [9] can be described thus: Micellar shape and structure (packing parameter). The source says: A theory of micellar structure, based upon the geometry of various micelle shapes and the space occupied by the surfactant has been disclosed by J. N. Israelachvili, D. J. Mitchell and B. W. Ninham in the J. Chem. Soc. Faraday Trans. 2, 1525, 72, (1976) which is given as the packing parameter (p).
VT =V(CH3) +(nc -1)V(CH2) and represents the volume occupied by the hydrophobic groups in the micellar core at a given temperature.
1c =1.50+1.26 nc Å and represents the length of the hydrophobic group in the core.
am =area per molecule or the cross-sectional area occupied by the hydrophilic group at the interface.
nc =total number of carbons in the alkyl chain.
Values obtained from the packing parameter (p) represent the following structures:
The packing parameter (p) of C8 /C10 oxypropyl D-Gluconamide was determined as follows: […]

A short description of series [10]: Efficiency in surface tension reduction (pC20). The source says:
Since surface tension reduction depends on the replacement of water molecules at the interface by surfactant molecules, the efficiency of a surfactant in reducing interfacial tension should reflect the concentration of surfactant at the interface relative to that in bulk liquid phase. A suitable measure of efficiency with which a surfactant performs this function can be described as pC20. This is defined as the negative logarithm of the bulk phase surfactant concentration necessary to reduce the surface tension of water by 20 dyn/cm and is given as:
In general, pC20 values are usually close to the minimum concentration needed to saturate the interface with surfactant molecules.

The mark [11] stands for this setting: listed as Dodecyl D-Gluconamide.
The mark [12] stands for this setting: listed as dodecyl D-gluconamide.

In the case of `CCCCCCCCCCCCNC(=O)[C@H](O)[C@@H](O)[C@H](O)[C@H](O)CO` [H, Dodecyl D-Gluconamide], in [1] (after 10 minutes), the “Foam Height Final (symbol)” value is “X”. Moreover, the “Foam Height Initial (symbol)” value in series [1] (initial) is on record as “X”. Moreover, the “CMC / micelle formation (in words)” value in [2] (setting [11]) is “None”; in [2] (setting [12]), “can not form micelles”. In addition, the figures for the water solubility result in series [3] (setting [11]) and in series [3] (setting [12]) were “Insoluble” and “insoluble in water”, respectively. In addition, in series [4], the “Krafft Point (0.1%)” value came out at 91 °C.
For the compound C8 /C10 oxypropyl D-gluconamide [Q], the “area per molecule (am)” value in series [5] is given as 43.1 Å^2. In [2], the “CMC / micelle formation (in words)” value is on record as “forms micelles at a surprising low critical micelle concentration”. Besides, in [6], the “surface pressure at the CMC (cmc)” value came out at 38.5 dyn/cm. Moreover, the “surface excess concentration / cross sectional area (in words)” value in [7] is given as “small cross sectional area”. For the same compound, the entries for the “surface excess concentration at surface saturation (Γmax)” value in series [7] (listed as C8 /C10 Oxypropyl D-Gluconamide) and in [7] (listed as C8 /C10 oxypropyl D-gluconamide) were 3.85 × 10^-10 mole/cm^2 and 3.85×10^-10 mole/cm^2, respectively. For the same compound, the “surface tension reduction (in words)” value in series [8] is listed as “significant reduction in water surface tension”. Moreover, the “VT, volume occupied by the hydrophobic groups in the micellar core” value in series [9] (T=333.15° K.) is 379.7 Å^3. Besides, the “la, length of the hydrophobic group in the core” value in series [9] (one oxygen atom taken as one methylene group) came to 17.5 Å. For the same compound, in [10], the “pC20 (in words)” value was “high pC20 value”. Further, the “Krafft Point (0.1%)” value in series [4] came out at 48 °C.
